From patent US11660293B2, “Substituted 2-azabicyclo[3.1.1]heptane and 2-azabicyclo[3.2.1]octane derivatives as orexin receptor antagonists” (Chronos Therapeutics Limited, priority 2017, dated 2023)

Legend:
[1] = target: human Orexin type 1 receptors (Homo sapiens (Human), UniProt O43613); assay: Scintillation Proximity Assay (SPA) binding assay, [3H]SB-674042 displacement, CHO-hOX1 membranes; details: for Ki: read-out: OX1 pKi (SPA binding) (converted)
[2] = target: human Orexin type 2 receptors (Homo sapiens (Human), UniProt O43614); assay: Scintillation Proximity Assay (SPA) binding assay, [3H]EMPA displacement, HEK-hOX2 membranes; details: for Ki: read-out: OX2 pKi (SPA binding) (converted)
Chain of human Orexin type 2 receptors (O43614 whole entry): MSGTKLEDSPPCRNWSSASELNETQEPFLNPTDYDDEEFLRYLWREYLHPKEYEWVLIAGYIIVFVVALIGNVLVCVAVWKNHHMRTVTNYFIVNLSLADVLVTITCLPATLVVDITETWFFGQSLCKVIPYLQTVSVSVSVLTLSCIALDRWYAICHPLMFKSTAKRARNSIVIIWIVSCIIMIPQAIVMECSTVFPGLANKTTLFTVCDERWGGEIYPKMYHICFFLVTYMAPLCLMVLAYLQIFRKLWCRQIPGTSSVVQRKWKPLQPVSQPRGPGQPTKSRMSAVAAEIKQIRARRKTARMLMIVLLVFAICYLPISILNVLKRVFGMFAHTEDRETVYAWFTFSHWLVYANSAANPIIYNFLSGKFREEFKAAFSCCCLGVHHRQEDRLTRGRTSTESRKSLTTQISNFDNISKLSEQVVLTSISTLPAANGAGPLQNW

Chain of human Orexin type 1 receptors (O43613 whole entry): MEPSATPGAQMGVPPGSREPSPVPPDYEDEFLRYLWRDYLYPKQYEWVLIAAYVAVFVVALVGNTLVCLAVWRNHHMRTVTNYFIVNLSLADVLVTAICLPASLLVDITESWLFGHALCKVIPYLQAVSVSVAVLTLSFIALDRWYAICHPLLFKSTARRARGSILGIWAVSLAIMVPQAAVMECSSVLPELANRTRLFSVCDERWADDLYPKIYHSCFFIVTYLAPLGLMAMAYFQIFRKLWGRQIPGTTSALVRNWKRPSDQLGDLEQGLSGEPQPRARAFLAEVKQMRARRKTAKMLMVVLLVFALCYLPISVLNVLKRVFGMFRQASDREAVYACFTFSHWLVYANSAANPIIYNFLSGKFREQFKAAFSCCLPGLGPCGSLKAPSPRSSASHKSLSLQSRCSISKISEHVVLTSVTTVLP

Row | SMILES | OX1 pKi (SPA binding) ([1]; Table 2, [3H]SB-674042 2 nM) | OX2 pKi (SPA binding) ([2]; Table 2, [3H]EMPA 2 nM) | other results
1 | Cc1ccc(-n2nccn2)c(C(=O)N2C3CC(C3)[C@@H](C)C2CNc2nc3ccc(F)cc3o2)n1 (mixture of isomers) [Example 218, cis-6-fluoro-N-({4-methyl-2-[6-methyl-3-(2H-1,2,3-triazol-2-yl)pyridine-2-carbonyl]-2-azabicyclo[3.1.1]heptan-3-yl}methyl)-1,3-benzoxazol-2-amine] | 8.33 | 5.47 | 
2 | C[C@@H]1C2CC(C2)N(C(=O)c2cc(F)ccc2-n2nccn2)C1CNc1cnc(C(F)(F)F)cn1 (mixture of isomers) [Example 221, cis-N-({2-[5-fluoro-2-(2H-1,2,3-triazol-2-yl)benzoyl]-4-methyl-2-azabicyclo[3.1.1]heptan-3-yl}methyl)-5-(trifluoromethyl)pyrazin-2-amine] | 7.73 | 4.94 | 
3 | C[C@@H]1C2CC(C2)N(C(=O)c2cc(F)ccc2-n2nccn2)C1CNc1nc2cccnc2s1 (mixture of isomers) [Example 228, cis-N-({2-[5-fluoro-2-(2H-1,2,3-triazol-2-yl)benzoyl]-4-methyl-2-azabicyclo[3.1.1]heptan-3-yl}methyl)-[1,3]thiazolo[5,4-b]pyridin-2-amine] | 7.94 | 5.04 | 
4 | C[C@@H]1C2CC(C2)N(C(=O)c2cc(Cl)ccc2-n2nccn2)C1CNc1nc2cccnc2s1 (mixture of isomers) [Example 234, cis-N-({2-[5-chloro-2-(2H-1,2,3-triazol-2-yl)benzoyl]-4-methyl-2-azabicyclo[3.1.1]heptan-3-yl}methyl)-[1,3]thiazolo[5,4-b]pyridin-2-amine] | 8.45 | 5.46 | 
5 | C[C@@H]1C2CC(C2)N(C(=O)c2cc(C#N)ccc2-n2nccn2)C1CNc1cnc(C(F)(F)F)cn1 (mixture of isomers) [Example 237, cis-3-[4-methyl-3-({[5-(trifluoromethyl)pyrazin-2-yl]amino}methyl)-2-azabicyclo[3.1.1]heptane-2-carbonyl]-4-(2H-1,2,3-triazol-2-yl)benzonitrile] | 7.33 | 4.82 | 
6 | C[C@@H]1C2CC(C2)N(C(=O)c2cc(C#N)ccc2-n2nccn2)C1CNc1cnc2cc(F)ccc2n1 (mixture of isomers) [Example 238, cis-3-(3-{[(6-fluoroquinoxalin-2-yl)amino]methyl}-4-methyl-2-azabicyclo[3.1.1]heptane-2-carobnyl)-4-(2H-1,2,3-triazol-2-yl)benzonitrile] | 7.98 | 6.32 | 
7 | C[C@@H]1C2CC(C2)N(C(=O)c2cc(Cl)ccc2-n2nccn2)C1CNc1nc2cccnc2o1 (mixture of isomers) [Example 242, cis-N-({2-[5-chloro-2-(2H-1,2,3-triazol-2-yl)benzoyl]-4-methyl-2-azabicyclo[3.1.1]heptan-3-yl}methyl)-[1,3]oxazolo[5,4-b]pyridin-2-amine] | 8.1 | 5.14 | 
8 | C[C@@H]1C2CC(C2)N(C(=O)c2nn(C)cc2-c2ncccn2)C1CNc1cnc(C(F)(F)F)cn1 (mixture of isomers) [Example 245, cis-N-({4-methyl-2-[1-methyl-4-(pyrimidin-2-yl)-1H-pyrazole-3-carbonyl]-2-azabicyclo[3.1.1]heptan-3-yl}methyl)-5-(trifluoromethyl)pyrazin-2-amine] | 7.55 | 4.49 | 
9 | C[C@@H]1C2CC(C2)N(C(=O)c2ccc(Cl)cc2-n2nccn2)C1CNc1cnc(C(F)(F)F)cn1 (mixture of isomers) [Example 246, cis-N-({2-[4-chloro-2-(2H-1,2,3-triazol-2-yl)benzoyl]-4-methyl-2-azabicyclo[3.1.1]heptan-3-yl}methyl)-5-(trifluoromethyl)pyrazin-2-amine] | 7.57 | 5.61 | 
10 | Cc1ccc(-c2ncccn2)c(C(=O)N2C3CC(C3)[C@@H](C)C2CNc2cnc(C(F)(F)F)cn2)n1 (mixture of isomers) [Example 248, cis-N-({4-methyl-2-[6-methyl-3-(pyrimidin-2-yl)pyridine-2-carbonyl]-2-azabicyclo[3.1.1]heptan-3-yl}methyl)-5-(trifluoromethyl)pyrazin-2-amine] | 7.76 | 4.58 | 
11 | Cc1nc(C(=O)N2[C@H]3C[C@H](C3)[C@@H](C)[C@H]2COc2ccc(F)cc2)c(-c2ccccn2)s1 (racemic) [Example 132, cis-3-[(4-fluorophenoxy)methyl]-4-methyl-2-[2-methyl-5-(pyridin-2-yl)-1,3-thiazole-4-carbonyl]-2-azabicyclo[3.1.1]heptane] | 7.97 | 6.72 | 
12 | Cc1nc(C(=O)N2C3CC(C3)[C@H](F)[C@H]2COc2ccc(F)cn2)c(-c2ccccc2)s1 (single isomer, unassigned) [Example 63, (3R,4S or 3S,4R)-4-fluoro-3-{[(5-fluoropyridin-2-yl)oxy]methyl}-2-(2-methyl-5-phenyl-1,3-thiazole-4-carbonyl)-2-azabicyclo[3.1.1]heptane] |  |  | OX1 pKi (SPA binding) ([1]; Table 1, [3H]SB-674042 2 nM): 8.06; OX2 pKi (SPA binding) ([2]; Table 1, [3H]EMPA 2 nM): 6.37
13 | Cc1nc(C(=O)N2C3CC(C3)[C@@H](C)[C@@H]2COc2cc3ccccc3cn2)c(-c2ccccc2)s1 (single isomer, unassigned) [Example 86, 3-{[(3R,4R or 3S,4S)-4-methyl-2-(2-methyl-5-phenyl-1,3-thiazole-4-carbonyl)-2-azabicyclo[3.1.1]heptan-3-yl]methoxy}isoquinoline] |  |  | Ki ([1]; Table 1, [3H]SB-674042 2 nM): 89.1 nM; Ki ([2]; Table 1, [3H]EMPA 2 nM): 1290 nM
14 | Cc1nc(C(=O)N2C3CC(C3)[C@@H](C)[C@@H]2COc2cc3ccccc3cn2)c(-c2ccccc2)s1 (single isomer, unassigned) [Example 88, 3-{[(3S,4S or 3R,4R)-4-methyl-2-(2-methyl-5-phenyl-1,3-thiazole-4-carbonyl)-2-azabicyclo[3.1.1]heptan-3-yl]methoxy}isoquinoline] |  |  | Ki ([1]; Table 1, [3H]SB-674042 2 nM): 12 nM; Ki ([2]; Table 1, [3H]EMPA 2 nM): 275 nM
15 | Cc1nc(C(=O)N2C3CC(C3)[C@H](C)[C@@H]2COc2cc3ccccc3cn2)c(-c2ccccc2)s1 (single isomer, unassigned) [Example 89, 3-{[(3S,4R or 3R,4S)-4-methyl-2-(2-methyl-5-phenyl-1,3-thiazole-4-carbonyl)-2-azabicyclo[3.1.1]heptan-3-yl]methoxy}isoquinoline] |  |  | Ki ([1]; Table 1, [3H]SB-674042 2 nM): 1.38 nM; Ki ([2]; Table 1, [3H]EMPA 2 nM): 1000 nM
16 | Cc1ccc(-c2ncccn2)c(C(=O)N2C3CC(C3)[C@H](C)[C@@H]2COc2ccc(F)cc2)n1 (single isomer, unassigned) [Example 91, (3S,4R or 3R,4S)-3-(4-fluorophenoxymethyl)-4-methyl-2-[6-methyl-3-(pyrimidin-2-yl)pyridine-2-carbonyl]-2-azabicyclo[3.1.1]heptane] |  |  | Ki ([1]; Table 1, [3H]SB-674042 2 nM): 3.47 nM; Ki ([2]; Table 1, [3H]EMPA 2 nM): 35.5 nM
17 | Cc1ccc(-c2nccs2)c(C(=O)N2C3CC(C3)[C@H](C)C2COc2ccc(F)cc2)n1 (single isomer, unassigned) [Example 108, (3S,4S or 3R,4R)-3-[(4-fluorophenoxy)methyl]-4-methyl-2-[6-methyl-3-(1,3-thiazol-2-yl)pyridine-2-carbonyl]-2-azabicyclo[3.1.1]heptane] |  |  | Ki ([1]; Table 1, [3H]SB-674042 2 nM): 3.24 nM; Ki ([2]; Table 1, [3H]EMPA 2 nM): 407 nM
18 | Cc1ccc(-n2nccn2)c(C(=O)N2C3CC(C3)[C@H](C)C2COc2ccc(Cl)cc2)n1 (single isomer, unassigned) [Example 119, (3S,4S) or (3R,4R)-3-[(4-chlorophenoxy)methyl]-4-methyl-2-[6-methyl-3-(2H-1,2,3-triazol-2-yl)pyridin-2-carbonyl]-2-azabicyclo[3.1.1]heptane] | 7.08 | 5.77 | 
19 | Cc1ccc(-n2nccn2)c(C(=O)N2C3CC(C3)[C@H](C)C2COc2ccc(Cl)cc2)n1 (single isomer, unassigned) [Example 120, (3R,4R) or (3S,4S)-3-[(4-chlorophenoxy)methyl]-4-methyl-2-[6-methyl-3-(2H-1,2,3-triazol-2-yl)pyridine-2-carbonyl]-2-azabicyclo[3.1.1]heptane] | 8 | 5.98 | 
20 | Cc1nc(C(=O)N2C3CC(C3)[C@H](C)C2COc2ccc(F)cc2)c(-c2ccccn2)s1 (single isomer, unassigned) [Example 124, (3S,4S) or (3R,4R)-3-[(4-fluorophenoxy)methyl]-4-methyl-2-[2-methyl-5-(pyridin-2-yl)-1,3-thiazole-4-carbonyl]-2-azabicyclo[3.1.1]heptane] | 8.43 | 6.3 | 
21 | Cc1ccc(-n2nccn2)c(C(=O)N2C3CC(C3)[C@@H](C)C2CNc2nc3ccc(F)cc3s2)n1 (single isomer, unassigned) [Example 154, 6-fluoro-N-{[(3R,4S) or (3S,4R)-4-methyl-2-[6-methyl-3-(2H-1,2,3-triazol-2-yl)pyridine-2-carbonyl]-2-azabicyclo[3.1.1]heptan-3-yl]methyl}-1,3-benzothiazol-2-amine] | 9.06 | 6.23 | 
22 | Cc1ccc(-n2nccn2)c(C(=O)N2C3CC(C3)[C@@H](C)C2CNc2cnc3ccccc3n2)n1 (single isomer, unassigned) [Example 159, N-{[(3S,4R) or (3R,4S)-4-methyl-2-[6-methyl-3-(2H-1,2,3-triazol-2-yl)pyridine-2-carbonyl]-2-azabicyclo[3.1.1]heptan-3-yl]methyl}quinoxalin-2-amine] | 6.84 | 4.59 | 
23 | Cc1ccc(-n2nccn2)c(C(=O)N2C3CC(C3)[C@@H](C)C2CNc2cnc3ccccc3n2)n1 (single isomer, unassigned) [Example 160, N-{[(3R,4S) or (3S,4R)-4-methyl-2-[6-methyl-3-(2H-1,2,3-triazol-2-yl)pyridine-2-carbonyl]-2-azabicyclo[3.1.1]heptan-3-yl]methyl}quinoxalin-2-amine] | 8.68 | 5.98 | 
